These results are taken from publication doi:10.1101/2023.10.24.563163v2, “Targeting cancer with small molecule pan-KRAS degraders” (biorxiv, 2024).

Assay [1] addresses T1, VCB:KRAS ternary complex partners (Homo sapiens, UniProt P01116+P40337, P01116:C118S/P01116:G12D).
T1 construct: VCB (Avi-tagged, biotinylated for SPR) plus KRAS 1-169 C118S GDP; E. coli, His6 tags removed; with Elongin-C; Elongin-B
The assay is described as follows: biochemical. Set-up: SPR binary and ternary complex binding affinity and kinetics. Conditions: SPR; for kon: read-out: SPR VCB+KRAS^G12D kon [1/(M s)]. An excerpt:
With the objective of identifying molecules that potently degrade multiple KRAS mutants we next sought to employ structure-based design using the solved ternary co-crystal structure of compound 3 to improve ternary complex stability and intracellular VHL engagement. […] Analysis of the VCB:compound 3:KRAS^G12V co-crystal structure (Fig. 1H) highlighted an opportunity to enhance interactions within the ternary complex by improving π-stacking between the exit vector amide of the VHL ligand and Tyr112. We therefore switched the amide for an isoxazole, which has been previously reported to improve VCB affinity in this position in other contexts ([22]), yielding compound 4 (Fig. 2A). A ternary complex co-crystal structure of VCB:compound 4:KRAS^G12V (PDB 8QW7) confirmed a consistent overall binding mode to that observed for compound 3 (RMSD = 0.72 Å), with compound 4 able to engage in π-stacking interaction between the isoxazole and Tyr112 of VCB as designed (Fig. 2B). […] FP, SPR and cellular target engagement studies support a minor improvement in binary VHL engagement for compound 4, with moderate cooperativity retained (fig. S2A-C, table S1). […] We then investigated the impact of these structural changes on degradation kinetics in live HiBiT-tagged GP5d cells (fig. S3A-D). […] Aiming to measure ternary complex stability, we noted that the FP assay reached the limits of quantification due to ternary KD approaching that of the assay probe (fig. S8B).

The target of assay [2] is T1, VCB:KRAS ternary complex partners. In words: biochemical. Conditions: FP, saturating KRAS G12D. On the set-up: FP displacement of FAM-HIF-1alpha peptide from VCB, with or without saturating KRAS G12D.
For assay [3], the target named is T2, KRAS wild type (Homo sapiens, UniProt P01116).
T2 construct: endogenous in A375 / HEK293
Set-up: KRAS degradation by capillary electrophoresis (Wes) immunodetection. Conditions: 6 h, degrader.
Description: Protein Detection by Capillary Electrophoresis Cells (50 000) were seeded the day before treatment into 96-well clear-flat bottom plates and incubated overnight (37 °C, humidified tissue culture incubator, 5% CO2). Compounds were added from DMSO stock solution using a digital dispenser and cells are incubated at 37 °C as specified (24 hours for KRAS degradation, 6 hours for determination of pERK levels). At the end of the incubation, medium was removed, cells washed with ice cold PBS, PBS removed and 50 µL lysis buffer (Meso Scale Discovery #R60TX-2) supplemented with 1:100 protease inhibitor solution, 1:100 phosphatase inhibitor I, 1:100 phosphatase inhibitor II (Meso Scale Discovery #R70AA-1), 0.5 µL/mL Benzonase (Novagen #70664-3) and 10 mM dithiothreitol added to each well. Plates with lysis buffer were immediately transferred to -80 °C freezer for at least 2 hours and then thawed on ice. Lysates were transferred to a 96 well V-bottom plate and insoluble debris was pelleted by centrifugation for 20 min. at 4 000 rpm. 40 µL of the supernatant were transferred to a fresh Eppendorf PCR plate. Analysis of protein levels was conducted using the Wes System, ProteinSimple (https://www.bio-techne.com/) as specified by the manufacturer. Briefly, Wes Master Mix (12-230 kDa WES Separation Module, 8 × 25 capillary cartridges, ProteinSimple #SM-W004) and molecular weight markers were prepared as specified in the manufacturer’s recommendations. To detect primary antibodies, anti-rabbit (Protein Simple #DM-001) or anti-mouse (Protein Simple #DM-002) detection modules were used. 7.2 µL lysate + 1.8 µL master mix were combined and heated to 95 °C for 5 min.

Assay [4] concerns the target KRAS^G12C (Homo sapiens, UniProt P01116, G12C). Set-up: endogenous; KRAS degradation by capillary electrophoresis immunodetection. To be noted: read-out: DC50 24 h NCI-H358. How it is done:
Protein Detection by Capillary Electrophoresis Cells (50 000) were seeded the day before treatment into 96-well clear-flat bottom plates and incubated overnight (37 °C, humidified tissue culture incubator, 5% CO2). Compounds were added from DMSO stock solution using a digital dispenser and cells are incubated at 37 °C as specified (24 hours for KRAS degradation, 6 hours for determination of pERK levels). At the end of the incubation, medium was removed, cells washed with ice cold PBS, PBS removed and 50 µL lysis buffer (Meso Scale Discovery #R60TX-2) supplemented with 1:100 protease inhibitor solution, 1:100 phosphatase inhibitor I, 1:100 phosphatase inhibitor II (Meso Scale Discovery #R70AA-1), 0.5 µL/mL Benzonase (Novagen #70664-3) and 10 mM dithiothreitol added to each well. Plates with lysis buffer were immediately transferred to -80 °C freezer for at least 2 hours and then thawed on ice. Lysates were transferred to a 96 well V-bottom plate and insoluble debris was pelleted by centrifugation for 20 min. at 4 000 rpm. 40 µL of the supernatant were transferred to a fresh Eppendorf PCR plate. Analysis of protein levels was conducted using the Wes System, ProteinSimple (https://www.bio-techne.com/) as specified by the manufacturer. […]

Assay [5] concerns the target KRAS^G12V (Homo sapiens, UniProt P01116, G12V). Set-up: endogenous in SW620; KRAS degradation by capillary electrophoresis (Wes) immunodetection. To be noted: SW620; 6 h; degrader.
The target in assay [6] is KRAS^G12D (Homo sapiens, UniProt P01116, G12D). Set-up: endogenous or HiBiT-tagged in cells; KRAS degradation by capillary electrophoresis (Wes) immunodetection. To be noted: GP2d; 6 h; degrader.

Structures are written as SMILES. Like-named read-outs stand apart in the source and are kept apart here. Where only a bound is given, the exact number is not on record here.

Broadly, the Kd is the concentration at which binding is half-saturated. Read a low Kd as a tighter complex. In general, DC50 refers to the midpoint of the concentration-degradation curve.

T1 sequence (Q15370 1-104): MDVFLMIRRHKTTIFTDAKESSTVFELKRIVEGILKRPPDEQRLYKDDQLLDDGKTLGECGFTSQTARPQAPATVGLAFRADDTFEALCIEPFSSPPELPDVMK
T1 sequence (P01116 1-169 G12D/C118S): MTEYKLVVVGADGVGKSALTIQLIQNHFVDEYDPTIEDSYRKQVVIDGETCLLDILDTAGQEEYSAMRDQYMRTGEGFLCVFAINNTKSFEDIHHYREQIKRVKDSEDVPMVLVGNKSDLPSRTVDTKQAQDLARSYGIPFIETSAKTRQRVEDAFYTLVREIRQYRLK
T1 sequence (Q15369 17-112, further chain): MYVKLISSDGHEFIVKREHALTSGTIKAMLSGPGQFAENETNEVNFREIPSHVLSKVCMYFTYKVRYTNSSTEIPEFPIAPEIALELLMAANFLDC
T1 sequence (P40337 54-213): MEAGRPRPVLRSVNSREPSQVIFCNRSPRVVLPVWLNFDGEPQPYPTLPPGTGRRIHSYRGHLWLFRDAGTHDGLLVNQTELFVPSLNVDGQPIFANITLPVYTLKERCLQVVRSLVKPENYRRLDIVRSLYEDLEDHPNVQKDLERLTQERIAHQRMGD
T2 sequence (P01116 whole entry): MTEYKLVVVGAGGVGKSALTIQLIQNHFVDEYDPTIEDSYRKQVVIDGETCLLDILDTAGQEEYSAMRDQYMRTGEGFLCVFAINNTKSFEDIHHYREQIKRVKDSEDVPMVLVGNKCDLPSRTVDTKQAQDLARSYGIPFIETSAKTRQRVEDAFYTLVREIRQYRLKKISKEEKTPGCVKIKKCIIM
Sequence of KRAS^G12C (P01116 whole entry G12C): as the sequence (P01116 whole entry) above, with G12C counted along it
Sequence of KRAS^G12D (P01116 whole entry G12D): as the sequence (P01116 whole entry) above, with G12D counted along it
Sequence of KRAS^G12V (P01116 whole entry G12V): as the sequence (P01116 whole entry) above, with G12V counted along it

In the case of `Cc1ncsc1-c1ccc(CNC(=O)[C@@H]2C[C@@H](O)CN2C(=O)[C@@H](NC(=O)COCCCN2CCCN(c3nccc(-c4noc([C@@]5(C)CCCc6sc(N)c(C#N)c65)n4)n3)[C@@H](C)C2)C(C)(C)C)cc1` [compound 2], the kon in assay [1] was 224000 M⁻¹ s⁻¹. The dissociation constant Kd in assay [2] is 15 ± 2 nM.

`Cc1ncsc1-c1ccc(CNC(=O)[C@@H]2C[C@@H](O)CN2C(=O)[C@@H](NC(=O)CCCCCN2CCCN(c3nccc(-c4noc([C@@]5(C)CCCc6sc(N)c(C#N)c65)n4)n3)[C@@H](C)C2)C(C)(C)C)cc1` [compound 3]: the values for the Kd in assay [1] and in assay [2] were 30 ± 6 nM and 20 ± 3 nM, respectively. Besides, the kon in assay [1] was found to be 242000 M⁻¹ s⁻¹. The half-maximal degradation concentration (DC50) in assay [3] (A375) is 751 nM; in assay [3] (HEK293), > 1000 nM; in assay [4] it was 241 nM; in assay [5] it was 159 nM; in assay [6], 53.4 nM.

As for `Cc1ncsc1-c1ccc(CNC(=O)[C@@H]2C[C@@H](O)CN2C(=O)[C@@H](c2cc(OCCCCN3CCCN(c4nccc(-c5noc([C@@]6(C)CCCc7sc(N)c(C#N)c76)n5)n4)[C@@H](C)C3)no2)C(C)C)cc1` [compound 4], the half-maximal degradation concentration (DC50) is 36.7 nM in assay [3] (A375); 12.8 nM in assay [3] (HEK293); 25.1 nM in assay [4]; 24 nM in assay [5]; 7.3 nM in assay [6].
